Reference: patent US20130315849A1, “USE OF 13-HYDROXY-9,11-OCTADECADIENOIC ACID FOR TANNING HUMAN SKIN” (EVONIK GOLDSCHMIDT GMBH, priority 2010, published 2013)

Assays:
[1] = tested on: POMC; assay: UV-B-induced POMC gene expression in keratinocytes (qRT-PCR); type: cell-based, human; settings: NHEKs, 3 μg/ml 13-HODE, 160 J/m^2 UV-B, harvest 6 h after exposure; standardized to 18S rRNA; UV alone factor 1.8; p<0.01
Experimental: In the present example, the effect of 13-HODE on the POMC gene expression in UV-B-stimulated keratinocytes (normal human epidermal keratinocytes, NHEKs) was investigated. For this purpose, firstly primary human epidermal keratinocytes were prepared from neonatal foreskin. The procedure is described in the following publications: Grether-Beck et al., J Invest Dermatol 2005, 125: 545-553; and Grether-Beck et al., Exp Dermatol 2008, 17: 771-779. […]
After cultivation for 24 hours, the cells were exposed to a dose of 160 J/m^2 of UV-B radiation. […] The emitted power was determined using an IL 1700 Research Radiometer and SEE 240 UV-B photodetector (International Light Inc., Newbury Port, Mass.) and was 2.4 W/m^2 at a distance of 22 cm. […]
Isolation of whole-RNA and subsequent analysis of the gene expression by means of quantitative Real Time PCR (qRT-PCR) was carried out as described previously (Grether-Beck et al., J Invest Dermatol 2005, 125: 545-553; Grether-Beck et al., Exp Dermatol 2008, 17: 771-779). […] The RNA concentration was determined by means of photometric measurement at 260/280 nm (Biophotometer, Eppendorf, Germany). […] Besides the POMC expression, the expression of the 18s rRNA gene was also determined quantitatively as a reference. […]

[2] = tested on: COX2; assay: UV-stimulated induction of COX2 gene expression in keratinocytes (qRT-PCR); type: cell-based, human; settings: NHEKs, UV-B exposed, treated with 13-HODE as in Example 1; UV alone induction factor 2.5
Description: (§1) In the present example, the effect of 13-HODE on the expression of various proinflammatory marker genes in UV-B-stimulated keratinocytes (normal human epidermal keratinocytes, NHEKs) was investigated. The experimental procedure was largely identical to the procedure described in Example 1. Differences consisted merely in the selection of the gene-specific primers for carrying out the quantitative Real-Time PCR.

[3] = tested on: human skin; assay: Human in vivo study, maintenance of the skin tan (colorimetric skin colour); settings: 39 people, forearm, twice daily for 56 days, formulations with 0.1, 0.4, 1.0% 13-HODE vs formulation without
Experimental: In order to test to what extent 13-HODE has an influence on maintaining the skin tan, the maintenance of the summer tan under the influence of 13-HODE in test formulations was investigated in a clinical study. The study was carried out over a period of 8 weeks from mid-September to mid-November in Germany. The subject of the investigation was the skin colour by means of colorimetric measurements using a Skin-Colorimeter® CL 400 from Courage+Khazaka electronic GmbH, Cologne, Germany. The measurements were made in each case on the inside of the left and right forearm on a defined area measuring 3 cm×3 cm at a distance of 11-14 cm from the wrist. The average value, which resulted from the individual values of six to nine repeat measurements, was registered. 39 people aged 21-55 years participated, of which 28 were female and 11 male. In each case, the starting value of the skin colour TO was determined prior to the treatment and the value T8 was determined after treatment for 56 days with test formulations. The application frequency was twice daily, morning and evening. The test persons were given one formulation for the left arm and one for the right arm (formulation A, B, C, D; as per the table below).

[4] = tested on: POMC; assay: Basal (not UV-induced) POMC gene expression in keratinocytes (qRT-PCR); type: cell-based, human; settings: NHEKs, 10 μg/ml 13-HODE, no UV, 24 h + 24 h; standardized to 18S rRNA
Experimental: In the present example, the effect of 13-HODE on the POMC gene expression was investigated in keratinocytes which, in contrast to Example 1, have not been stimulated by prior UV exposure. For this purpose, firstly primary human epidermal keratinocytes were prepared from neonatal foreskin. The procedure is described in the following publications: Grether-Beck et al., J Invest Dermatol 2005, 125: 545-553; Grether-Beck et al., Exp Dermatol 2008, 17: 771-779. […]
The isolation of the whole-RNA and also the subsequent analysis of the gene expression by means of quantitative Real Time PCR (qRT-PCR) was carried out as described previously (Grether-Beck et al., J Invest Dermatol 2005, 125: 545-553; Grether-Beck et al., Exp Dermatol 2008, 17: 771-779). […] The RNA concentration was determined by means of photometric measurement at 260/280 nm (Biophotometer, Eppendorf, Germany). […] Besides the POMC expression, the expression of the 18s rRNA gene was also quantitatively determined as a reference. […]
The PCR reactions were carried out on an Opticon 1 (MJ Research, Waltham, Mass., USA). For all PCRs, double determinations of the biological triplicates were carried out, and for the evaluation averages of all measurements were calculated. […]

[5] = tested on: TNF-α; assay: UV-stimulated induction of TNF-α gene expression in keratinocytes (qRT-PCR); type: cell-based, human; settings: NHEKs, UV-B exposed, treated with 13-HODE as in Example 1; UV alone induction factor 7.4
Description: as §1

[6] = tested on: IL-6; assay: UV-stimulated induction of IL-6 gene expression in keratinocytes (qRT-PCR); type: cell-based, human; settings: NHEKs, UV-B exposed, treated with 13-HODE as in Example 1; UV alone induction factor 10.1
Description: as §1

[7] = tested on: IL-8; assay: UV-stimulated induction of IL-8 gene expression in keratinocytes (qRT-PCR); type: cell-based, human; settings: NHEKs, UV-B exposed, treated with 13-HODE as in Example 1; UV alone induction factor 11.2
Description: as §1

## CCCCCC(O)C=CC=CCCCCCCCC(=O)O (centres unmarked) [13-HODE, 13-hydroxy-9,11-octadecadienoic acid]
[1]
  POMC expression increased by a factor compared to the untreated control: 4.9
[2]
  expression level of COX2 in UV-exposed cells: considerably reduced expression level
[3]
  decrease in the blue-yellow parameter b* of the skin colour: reduced to differing degrees
  increase in the parameter ITA° of the skin colour: reduced to differing degrees
[4]
  basal (not UV-stimulated) POMC expression compared to the control treated with the vehicle (DMSO): 1.2 fold
[5]
  expression level of TNF-α in UV-exposed cells: considerably reduced expression level
[6]
  expression level of IL-6 in UV-exposed cells: considerably reduced expression level
[7]
  expression level of IL-8 in UV-exposed cells: considerably reduced expression level
